This note sets out measurements from patent publication US10975080B2, “Compounds and compositions for inhibiting the activity of SHP2” (NOVARTIS AG, priority 2015, dated 2021).

pIC50: −log10 of the molar value.

Chain of SHP2 (Q06124 whole entry): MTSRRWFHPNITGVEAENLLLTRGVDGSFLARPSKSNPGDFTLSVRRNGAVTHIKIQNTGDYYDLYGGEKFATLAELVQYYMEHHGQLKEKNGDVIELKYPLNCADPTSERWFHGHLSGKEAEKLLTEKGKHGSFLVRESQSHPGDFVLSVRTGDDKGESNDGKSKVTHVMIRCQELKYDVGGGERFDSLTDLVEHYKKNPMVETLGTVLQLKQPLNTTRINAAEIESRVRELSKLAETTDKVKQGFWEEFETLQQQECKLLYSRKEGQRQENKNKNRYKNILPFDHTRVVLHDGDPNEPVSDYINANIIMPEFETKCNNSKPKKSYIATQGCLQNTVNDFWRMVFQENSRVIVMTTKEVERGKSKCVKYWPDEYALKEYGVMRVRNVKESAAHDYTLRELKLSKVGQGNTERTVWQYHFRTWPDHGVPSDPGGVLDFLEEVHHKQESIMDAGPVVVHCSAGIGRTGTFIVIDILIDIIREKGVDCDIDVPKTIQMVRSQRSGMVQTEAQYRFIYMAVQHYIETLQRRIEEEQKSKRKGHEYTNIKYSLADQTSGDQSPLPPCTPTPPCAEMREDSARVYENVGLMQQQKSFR

The first experiment concerns the target SHP2 (Homo sapiens (Human), UniProt Q06124). In words: SHP2 Allosteric Inhibition Assay. The conditions noted are these: 0.5 nM SHP2 with 0.5 μM peptide IRS1_pY1172(dPEG8)pY1222; surrogate substrate DiFMUP; 25° C.; read-out: IC50. In kind it is biochemical. The source says: SHP2 Allosteric Inhibition Assay
SHP2 is allosterically activated through binding of bis-tyrosyl-phosphorylated peptides to its Src Homology 2 (SH2) domains. The latter activation step leads to the release of the auto-inhibitory interface of SHP2, which in turn renders the SHP2 protein tyrosine phosphatase (PTP) active and available for substrate recognition and reaction catalysis. The catalytic activity of SHP2 was monitored using the surrogate substrate DiFMUP in a prompt fluorescence assay format.
After 30-60 minutes incubation at 25° C., the surrogate substrate DiFMUP (Invitrogen, cat #D6567) was added to the reaction and incubated at 25° C. for 30 minutes. […] The inhibitor dose response curves were analyzed using normalized IC50 regression curve fitting with control based normalization.
Turning to `CC1(CN)CCN(c2cc3[nH]cc(-c4cccc(Cl)c4Cl)c3c(=O)[nH]2)CC1` [Example 11, 6-(4-(aminomethyl)-4-methylpiperidin-1-yl)-3-(2,3-dichlorophenyl)-1,5-dihydro-4H-pyrrolo[3,2-c]pyridin-4-one], the pIC50 (as a rule, −log10 of the IC50, conventionally taken in molar units) is 7.07. Still for that read-out and setting: in the case of `C[C@@H]1OCC2(CCN(c3cnc4c(-c5cccc(Cl)c5Cl)c[nH]c4n3)CC2)[C@@H]1N` [Example 12, (3S,4S)-8-(7-(2,3-dichlorophenyl)-5H-pyrrolo[2,3-b]pyrazin-3-yl)-3-methyl-2-oxa-8-azaspiro[4.5]decan-4-amine] it was 7.41; in that of `C[C@@H]1OCC2(CCN(c3nc4[nH]nc(-c5cc(N)nc(Cl)c5Cl)c4c(=O)n3C)CC2)[C@@H]1N` [Example 6, 3-(6-amino-2,3-dichloropyridin-4-yl)-6-((3S,4S)-4-amino-3-methyl-2-oxa-8-azaspiro[4.5]decan-8-yl)-5-methyl-1,5-dihydro-4H-pyrazolo[3,4-d]pyrimidin-4-one], 6.42.

Staying with this experiment, now noted: 0.5 nM SHP2 with 0.5 μM peptide IRS1_pY1172(dPEG8)pY1222; surrogate substrate DiFMUP; 25° C.; read-out: SHP2 IC50.
As to `C[C@@H]1OCC2(CCN(c3nc4[nH]nc(-c5ccnc(Cl)c5)c4c(=O)n3C)CC2)[C@@H]1N` [Example 44, 6-((3S,4S)-4-amino-3-methyl-2-oxa-8-azaspiro[4.5]decan-8-yl)-3-(2-chloropyridin-4-yl)-5-methyl-1,5-dihydro-4H-pyrazolo[3,4-d]pyrimidin-4-one], the pIC50 was 7.80. For the compound `COc1ccc(-c2n[nH]c3nc(N4CCC5(CC4)CO[C@@H](C)[C@H]5N)n(C)c(=O)c23)cn1` [Example 64, 6-((3S,4S)-4-amino-3-methyl-2-oxa-8-azaspiro[4.5]decan-8-yl)-3-(6-methoxypyridin-3-yl)-5-methyl-1,5-dihydro-4H-pyrazolo[3,4-d]pyrimidin-4-one], the pIC50 was 7.62. The same measure, in the same setting: in the case of `Cn1c(N2CCC3(CCC[C@H]3N)CC2)nc2[nH]nc(-c3ccccc3)c2c1=O` [Example 19, (R)-6-(1-amino-8-azaspiro[4.5]decan-8-yl)-5-methyl-3-phenyl-1,5-dihydro-4H-pyrazolo[3,4-d]pyrimidin-4-one] it was 7.34; in that of `COc1ccccc1-c1n[nH]c2nc(N3CCC4(CC3)CO[C@@H](C)[C@H]4N)n(C)c(=O)c12` [Example 66, 6-((3S,4S)-4-amino-3-methyl-2-oxa-8-azaspiro[4.5]decan-8-yl)-3-(2-methoxyphenyl)-5-methyl-1,5-dihydro-4H-pyrazolo[3,4-d]pyrimidin-4-one], 7.04; in that of `C[C@@H]1OCC2(CCN(c3nc4[nH]nc(Sc5ccnc(N)c5Cl)c4c(=O)n3C)CC2)[C@@H]1N` [Example 84, 3-((2-amino-3-chloropyridin-4-yl)thio)-6-((3S,4S)-4-amino-3-methyl-2-oxa-8-azaspiro[4.5]decan-8-yl)-5-methyl-1,5-dihydro-4H-pyrazolo[3,4-d]pyrimidin-4-one], 7.57. On the same count and under the same terms, to `Cn1c(N2CCC3(CC2)C[C@H](F)C[C@H]3N)nc2[nH]nc(-c3ccccc3)c2c1=O` [Example 39, 6-((1R,3S)-1-amino-3-fluoro-8-azaspiro[4.5]decan-8-yl)-5-methyl-3-phenyl-1,5-dihydro-4H-pyrazolo[3,4-d]pyrimidin-4-one] belongs 7.43; to `Cn1c(N2CCC3(CC[C@@H]3N)CC2)nc2[nH]nc(-c3cccc(Cl)c3Cl)c2c1=O` [Example 17, (S)-6-(1-amino-7-azaspiro[3.5]nonan-7-yl)-3-(2,3-dichlorophenyl)-5-methyl-1,5-dihydro-4H-pyrazolo[3,4-d]pyrimidin-4-one], 7.36; to `C[C@@H]1OCC2(CCN(c3nc4[nH]nc(-c5ccnc(N6CC[C@@H](O)C6)c5Cl)c4c(=O)n3C)CC2)[C@@H]1N` [Example 43, 6-((3S,4S)-4-amino-3-methyl-2-oxa-8-azaspiro[4.5]decan-8-yl)-3-(3-chloro-2-((R)-3-hydroxypyrrolidin-1-yl)pyridin-4-yl)-5-methyl-1,5-dihydro-4H-pyrazolo[3,4-d]pyrimidin-4-one], 7.08.
